In paper PMC9102038 (International Journal of Molecular Sciences, 2022):
Read-outs that look alike come from different tables or passages of the source.

Legend:
[1] = biological target: T1, GAL4–human PPARα-LBD chimera (Homo sapiens, UniProt Q07869); assay: GAL4–hPPARα-LBD dual luciferase transactivation assay in COS-7 cells
T1 sequence (Q07869 239-466 limits assumed): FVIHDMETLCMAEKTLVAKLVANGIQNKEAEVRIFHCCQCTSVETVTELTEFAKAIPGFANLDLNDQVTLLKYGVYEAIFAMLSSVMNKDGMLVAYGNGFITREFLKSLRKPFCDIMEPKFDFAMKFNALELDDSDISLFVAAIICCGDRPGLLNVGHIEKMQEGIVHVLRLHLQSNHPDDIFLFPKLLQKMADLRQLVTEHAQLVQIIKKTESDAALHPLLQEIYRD

human PPARα-LBD [2] = biological target: T2, human PPARα-LBD (Homo sapiens, UniProt Q07869); assay: TR-FRET PGC1α coactivator peptide recruitment assay, PPARα-LBD
T2 sequence (Q07869 200-468): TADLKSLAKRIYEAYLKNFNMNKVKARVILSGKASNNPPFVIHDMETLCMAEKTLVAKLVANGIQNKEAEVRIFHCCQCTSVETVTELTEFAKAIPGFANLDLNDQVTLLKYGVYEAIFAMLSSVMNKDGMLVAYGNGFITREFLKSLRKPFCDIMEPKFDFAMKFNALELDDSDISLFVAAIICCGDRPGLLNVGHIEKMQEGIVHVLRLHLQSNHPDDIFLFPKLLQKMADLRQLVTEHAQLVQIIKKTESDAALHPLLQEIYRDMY

human PPARα-LBD [3] = biological target: T2, human PPARα-LBD; assay: TR-FRET SRC1 coactivator peptide recruitment assay, PPARα-LBD
[4] = biological target: T3, GAL4–human PPARδ-LBD chimera (Homo sapiens, UniProt Q03181); assay: GAL4–hPPARδ-LBD dual luciferase transactivation assay in COS-7 cells; conditions: for efficacy, PPARδ-LBD-mediated transactivation: maximal effect of GW501516 (0.02 µM) as 100%
T3 sequence (Q03181 211-439 limits assumed): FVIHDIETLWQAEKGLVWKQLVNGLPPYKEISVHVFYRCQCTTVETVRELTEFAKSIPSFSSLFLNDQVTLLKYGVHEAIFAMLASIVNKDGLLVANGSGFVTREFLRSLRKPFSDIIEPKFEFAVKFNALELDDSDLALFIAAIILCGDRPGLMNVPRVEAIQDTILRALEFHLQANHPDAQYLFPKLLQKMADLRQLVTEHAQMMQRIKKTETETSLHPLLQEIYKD

human PPARγ-LBD [5] = biological target: T4, human PPARγ-LBD (Homo sapiens, UniProt P37231); assay: TR-FRET SRC1 coactivator peptide recruitment assay, PPARγ-LBD
T4 sequence (P37231 203-477 isoform P37231-2): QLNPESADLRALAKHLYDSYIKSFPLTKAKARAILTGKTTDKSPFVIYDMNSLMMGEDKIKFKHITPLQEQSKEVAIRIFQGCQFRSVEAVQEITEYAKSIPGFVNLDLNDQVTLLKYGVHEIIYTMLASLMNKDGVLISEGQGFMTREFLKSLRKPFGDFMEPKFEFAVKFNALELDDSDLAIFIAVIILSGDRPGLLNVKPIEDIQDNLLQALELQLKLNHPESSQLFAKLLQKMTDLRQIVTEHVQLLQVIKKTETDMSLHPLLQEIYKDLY

PPARδ-LBD [6] = biological target: T5, PPARδ-LBD (Homo sapiens, UniProt Q03181); assay: TR-FRET PGC1α coactivator peptide recruitment assay, PPARδ-LBD
T5 sequence (Q03181 170-441): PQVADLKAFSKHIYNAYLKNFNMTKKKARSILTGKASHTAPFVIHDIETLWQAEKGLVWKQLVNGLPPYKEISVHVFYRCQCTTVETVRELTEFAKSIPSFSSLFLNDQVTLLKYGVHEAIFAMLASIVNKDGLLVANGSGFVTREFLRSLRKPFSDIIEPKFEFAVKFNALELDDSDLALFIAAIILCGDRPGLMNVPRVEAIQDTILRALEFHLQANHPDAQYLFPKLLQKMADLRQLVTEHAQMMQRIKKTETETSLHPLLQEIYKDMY

[7] = biological target: T6, GAL4–human PPARγ-LBD chimera (Homo sapiens, UniProt P37231); assay: GAL4–hPPARγ-LBD dual luciferase transactivation assay in COS-7 cells; conditions: for efficacy, PPARγ-LBD-mediated transactivation: maximal effect of GW1929 (1 µM) as 100%
T6 sequence (P37231 238-503 limits assumed): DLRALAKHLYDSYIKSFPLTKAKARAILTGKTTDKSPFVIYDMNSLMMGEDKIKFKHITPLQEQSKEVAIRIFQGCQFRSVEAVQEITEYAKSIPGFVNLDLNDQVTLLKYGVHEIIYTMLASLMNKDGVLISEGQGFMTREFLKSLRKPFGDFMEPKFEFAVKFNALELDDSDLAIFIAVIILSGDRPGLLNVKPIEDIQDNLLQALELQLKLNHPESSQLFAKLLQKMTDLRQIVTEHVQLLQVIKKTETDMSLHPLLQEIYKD

PPARδ-LBD [8] = biological target: T5, PPARδ-LBD; assay: TR-FRET SRC1 coactivator peptide recruitment assay, PPARδ-LBD
human PPARγ-LBD [9] = biological target: T4, human PPARγ-LBD; assay: TR-FRET PGC1α coactivator peptide recruitment assay, PPARγ-LBD
PPARδ-LBD [10] = biological target: T5, PPARδ-LBD; assay: Circular dichroism thermostability assay, PPARδ-LBD; assay type: binding; set-up: His-tag (pET28a) (N, cleaved yes); made in house; host or cells: E. coli Rosetta (DE3) pLysS; conditions: CD at 222 nm, 10 µM protein, versus 0.1% DMSO
Experimental: Ligand-induced alterations in Tm values at 222 nm were investigated as types of reflection of α-helical stable structures of PPARs because PPAR ligand binding induces stabilization of the LBP [23, 24].
PPARα/δ/γ-LBD proteins (10 µM) were incubated with different concentrations of ligands in buffer A. CD spectra were monitored within 200–260 nm at increasing temperatures from 30 °C to 70 °C (2 °C/min) using a J-1500 spectropolarimeter equipped with a PTC-510 thermal controller (JASCO, Tokyo, Japan). […] The thermal stability of PPARs was investigated by continuously monitoring the ellipticity changes at 222 nm during thermal denaturation, and a single-site sigmoidal dose-response curve fitting program (Prism 5) was used to obtain the melting temperature (Tm) that corresponds to the midpoint of the denaturation process. The ligand-induced increases in Tm values are defined as ∆Tm.

PPARδ = test system: PPARδ; set-up: method as in PMID 14982965; conditions: read-out: EC50, PPARδ transactivation, previous experiments; cited from earlier work
PPARα = test system: PPARα; set-up: method as in PMID 14982965; conditions: read-out: EC50, PPARα transactivation, previous experiments; cited from earlier work
[11] = single dose (200 mg) of bezafibrate; read-out: maximal plasma concentration (Cmax); cited from earlier work
PPARγ = test system: PPARγ; set-up: method as in PMID 14982965; conditions: read-out: EC50, PPARγ transactivation, previous experiments; cited from earlier work
[12] = COS-7 cells, maximal effect of GW7647 (0.1 µM) as 100%

EC50 [4] [µM] | EC50 (PPARδ-LBD [6]) [µM] | efficacy, PPARγ-LBD-mediated transactivation ([7]; COS-7 cells) [%] | efficacy, PPARα-LBD-mediated transactivation [1, 12] [%] | EC50 (PPARδ-LBD [8]) [µM] | Compound | efficacy, PPARδ-LBD-mediated transactivation ([4]; COS-7 cells) [%] | EC50 (human PPARγ-LBD [5]) [µM] | EC50 [7] [µM] | EC50 (human PPARγ-LBD [9]) [µM] | also measured
 |  |  |  |  | CC(C)(Sc1ccc(CCN(CCCCC2CCCCC2)C(=O)NC2CCCCC2)cc1)C(=O)O [GW7647] |  |  |  |  | maximal effect, PPARα-LBD-mediated transactivation (× of the basal activity) ([1]; COS-7 cells, at 0.1 µM): 5.73 ×; maximal effect, PGC1α recruitment to PPARα-LBD (× of the basal activity) (human PPARα-LBD [2]; at 1 µM): 8.87 ×; maximal effect, SRC1 recruitment to PPARα-LBD (× of the basal activity) (human PPARα-LBD [3]; at 1 µM): 6.12 ×
1.39 | 6.11 | 119 | 107 | 4.82 | CC[C@@H](Oc1cccc(CN(CCCOc2ccc(OC)cc2)c2nc3ccccc3o2)c1)C(=O)O [pemafibrate] | 11.3 | > 10 | > 5 | 9.7 | 
> 500 | > 100 | 87.7 | 104 | > 500 | CC(C)(Oc1ccc(C(=O)c2ccc(Cl)cc2)cc1)C(=O)O [fenofibric acid] |  |  |  |  | PPARδ-LBD-mediated transactivation (in words) ([4]; COS-7 cells): did not induce transactivation; PGC1α recruitment to PPARδ-LBD (in words) (PPARδ-LBD [6]; TR-FRET): did not recruit PGC1α; EC50 [1]: 9.47 µM; EC50 (human PPARα-LBD [2]): 20.9 µM; EC50 (human PPARα-LBD [3]): 9.87 µM; effect on Tm of PPARδ-LBD (thermostability, in words) (PPARδ-LBD [10]): increased thermostability
 |  |  |  |  | GW1929 |  |  |  |  | maximal effect, SRC1 recruitment to PPARγ-LBD (× of the basal activity) (human PPARγ-LBD [5]; at 1 µM): 9.26 ×; maximal effect, PPARγ-LBD-mediated transactivation (× of the basal activity) ([7]; COS-7 cells, at 1 µM): 2.26 ×; maximal effect, PGC1α recruitment to PPARγ-LBD (× of the basal activity) (human PPARγ-LBD [9]; at 1 µM): 5.80 ×

Compound | EC50 [4] [µM] | EC50 (PPARδ-LBD [6]) [µM] | efficacy, PPARγ-LBD-mediated transactivation ([7]; COS-7 cells) [%] | efficacy, PPARα-LBD-mediated transactivation [1, 12] [%] | EC50 (PPARδ-LBD [8]) [µM] | efficacy, PPARδ-LBD-mediated transactivation ([4]; COS-7 cells) [%] | EC50 (human PPARγ-LBD [5]) [µM] | EC50 [7] [µM] | EC50 (human PPARγ-LBD [9]) [µM] | also measured
CC(C)(Oc1ccc(CCNC(=O)c2ccc(Cl)cc2)cc1)C(=O)O [bezafibrate] | 86.7 |  | 77.1 |  | 31.8 | 15.2 | 76 | 178 | 48.9 | EC50 (PPARδ): 95 µM; EC50 (PPARα): 25 µM; Cmax [11]: 20.4 µM; efficacy, PPARα-LBD-mediated transactivation [1]: 93.6%; EC50 (PPARγ): > 100 µM
